Assays:
GPI anchor biosynthesis = experiment: in-vitro GPI anchor biosynthesis assay; type: biochemical; conditions: UDP-[3H]-GlcNAc, ATP, Coenzyme A, GDP-mannose; TLC
Source text: Crude lysate from hypotonic lysing of spheroplasts as well as microsomal preparations can be used as an enzyme source for a coupled in vitro assay. Addition of UDP-[^3H]-GlcNAc, ATP, Coenzyme A and GDP-mannose provides the necessary substrates to synthesize a complete precursor from endogenous PI and fatty acid.

Mcd4p = target: T1, Mcd4p (Saccharomyces cerevisiae, UniProt P36051); experiment: MCD4 overexpression and inositol-labeling experiments in mcd4-174; type: cell-based; conditions: MCD4 overexpression; mcd4-174 mutant strain
T1 construct: overexpressed by cloning the gene under the control of its endogenous promoter in 2 micron (multi-copy) vectors; expressed in transfected cells; host or cells: yeast (S. cerevisiae) cells carrying MCD4 on a 2 micron multi-copy vector; also the mcd4-174 mutant strain for inositol labelling
T1 sequence (P36051 1-919): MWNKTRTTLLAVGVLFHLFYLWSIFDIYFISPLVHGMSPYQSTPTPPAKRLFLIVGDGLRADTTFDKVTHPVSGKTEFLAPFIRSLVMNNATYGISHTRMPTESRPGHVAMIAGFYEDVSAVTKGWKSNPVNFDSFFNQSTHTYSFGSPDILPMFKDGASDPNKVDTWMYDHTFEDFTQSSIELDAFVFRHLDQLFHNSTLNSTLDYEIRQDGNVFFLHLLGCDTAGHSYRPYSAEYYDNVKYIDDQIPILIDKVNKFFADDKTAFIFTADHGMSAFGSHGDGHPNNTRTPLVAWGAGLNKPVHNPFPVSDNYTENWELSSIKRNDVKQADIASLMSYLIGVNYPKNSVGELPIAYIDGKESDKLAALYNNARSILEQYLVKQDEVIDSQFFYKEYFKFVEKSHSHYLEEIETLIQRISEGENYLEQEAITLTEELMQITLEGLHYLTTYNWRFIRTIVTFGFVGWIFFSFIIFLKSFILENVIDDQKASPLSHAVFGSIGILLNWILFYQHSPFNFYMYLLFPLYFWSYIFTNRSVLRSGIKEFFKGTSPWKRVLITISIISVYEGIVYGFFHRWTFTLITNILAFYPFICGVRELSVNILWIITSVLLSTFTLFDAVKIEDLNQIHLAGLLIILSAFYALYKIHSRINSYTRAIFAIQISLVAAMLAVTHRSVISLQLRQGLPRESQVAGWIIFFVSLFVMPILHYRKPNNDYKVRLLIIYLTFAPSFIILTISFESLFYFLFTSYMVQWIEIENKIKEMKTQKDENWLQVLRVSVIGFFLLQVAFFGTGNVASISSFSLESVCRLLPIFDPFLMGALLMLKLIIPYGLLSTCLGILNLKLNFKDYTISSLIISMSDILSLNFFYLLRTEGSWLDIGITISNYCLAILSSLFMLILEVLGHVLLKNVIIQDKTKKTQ
Source text: An overexpression resistance (OER) assay was employed to determine the cellular target of compounds isolated via the primary assay. Each of the known genes in the GPI pathway were overexpressed by cloning the gene under the control of its endogenous promoter in 2 micron (multi-copy) vectors. This is a rapid and very powerful assay, but has certain limitations. For example, with a number of hits, precipitation of the compound can be observed when spotted onto plates. […] In such cases, the ability to detect increased resistance in the shoulder region is limited by the small zone size. […] Therefore, the OER assay, while very powerful and rapid, may be limiting when working with compounds that are weakly AF.
Studies on a natural compound, CJ-19089 (also known as YW3548, a terpenoid lactone) have documented that this compound targets the MCD4 catalyzed step in the GPI-anchor biosynthesis pathway. […] This inhibitor has proven to be a very valuable tool for examining the pathway and establishing standards for chromatographic analysis. […] CJ-19089 was used as a positive control in each assay and was used in comparison to untreated samples for assay development.

[1] = system: MCD4 catalyzed step in the GPI-anchor biosynthesis pathway; conditions: cited from earlier work
wild type yeast strain = experiment: SDS hypersensitivity assay; type: cell-based; conditions: SDS in the growth media
Source text: Published data on a mcd4 mutant strain have shown that it has a number of characteristic phenotypes including increased sensitivity to SDS, an osmotic destabilizing detergent. The presence of as little as 0.004% SDS in the growth media leads to increased sensitivity of a wild type yeast strain to GPI-anchor inhibitors and thereby allows for the rapid screening of analogs. Again, this is a potentially information-rich assay but is subject to the same technical limitations discussed above for the OER assay.

UPR pathway = experiment: UPRE::lacZ reporter induction screen (primary assay); type: cell-based, Saccharomyces cerevisiae; conditions: yeast cells containing 3X UPRE-CYClMINlacz, S. cerevisiae Δmdr mutant
Source text: Several UPRE::lacz reporter plasmids were constructed and used to transform a S. cerevisiae Δ mdr mutant and the transformants assessed for their ability to selectively respond to tunicamycin. The reporter sequence 3X UPRE-CYClMINlacz (FIG. 2) provided a selective, sensitive, and robust screening response to tunicamycin treatment and was selected for use in the Very High Throughput Screen (vHTS; Example 2). […] The activity of an associated β-galactosidase reporter gene thus served as an indirect signal of UPR-pathway stimulation.
The yeast strains were diploid Δmdr mutants of Saccharomyces cerevisiae: MMB 1663 (3XUPRE CYClMIN::lacz). Yeast glycerol stocks were prepared by culturing MMB 1663 (3XUPRE CYClMIN::lacZ) overnight to an OD 600 nm of 0.500. The culture was concentrated by centrifugation at 1000×g for 10 minutes and the pellet resuspended in fresh medium to an OD 600 nm of 1.00. An equal volume of HR Medium with 50% glycerol was added, producing a suspension of cells with an OD 600 nm of 0.500 and a final concentration of 25% glycerol. […]
4. […] (Packard TopSeal-A Plate Tape is not required for either plate reader when volumes are ≦50 μl for 384-well or ≦200 μl for 96-well plates).
5. After 90 minutes, β-galactosidase activity was read, using a 90 to 240 minute window. […]

C=C1[C@@H]2C[C@@H]3[C@H](C(C)C)[C@@H](OC(=O)CC(C)(O)CC(C)CC)C[C@@]3(C)C[C@H]2/C(C)=C\C[C@@H]2[C@@H](C)OC(=O)[C@H](O)[C@]12O (some centres unmarked) [CJ-19089]
accumulation of CJ-lipid (GPI anchor biosynthesis): the CJ-lipid can be visualized | cellular target (Mcd4p): the target of this compound is Mcd4p | incorporation of [3H]myo-inositol into proteins [1]: prevents the incorporation of [^3H]myo-inositol into proteins | step of GPI anchor biosynthesis blocked [1]: specifically blocks the addition of the third mannose to the intermediate structure Man2-GlcN-acylPI | toxicity [1]: toxic | transport of GPI-anchored proteins to the Golgi apparatus [1]: prevents transport of GPI-anchored proteins to the Golgi apparatus

OC(Cn1cncn1)(Cn1cncn1)c1ccc(F)cc1F [fluconazole]
result on SDS plates (wild type yeast strain): unambiguous positive result

tunicamycin
lacZ reporter gene transcription (UPR-pathway stimulation) (UPR pathway): over transcribed

Reference: patent publication US20020072051A1, “Screen for identifying inhibitors of GPI anchoring” (priority 2000, published 2002)
